Measured values published in patent US20250206718A1, “NITROGEN-CONTAINING HETEROCYCLIC DERIVATIVE INHIBITOR, PREPARATION METHOD THEREFOR AND USE THEREOF” (SHANGHAI HANSOH BIOMEDICAL CO., LTD., priority 2022, published 2025).

How the values were obtained:
[1] = target: Ba/F3 EGFR Del19/T790M/C797S cells (Homo sapiens, UniProt P00533, T790M/C797S, cells depend on it, form not given); test: Cell proliferation inhibition (Cell Titer-Glo), Ba/F3 EGFR Del19/T790M/C797S; format: cell-based, mouse; conditions: 72 hours, CellTiter-Glo, read-out: Ba/F3 EGFR Del19_T790M_C797S IC50
From the text: (§1) Experimental objective: The objective of this test example is to test the inhibitory activity of compounds on the proliferation of different EGFR C797S drug-resistant mutant cell lines Ba/F3 EGFR Del19/T790M/C797S, Ba/F3 EGFR L858R/T790M/C797S, and Ba/F3 EGFR Del19/C797S.
(§2) • Ba/F3 EGFR Del19/T790M/C797S cells were purchased from KYinno Biotechnology Co., Ltd.; • Ba/F3 EGFR Del19/C797S cells were purchased from CoBioer Biosciences Co., Ltd.; • Ba/F3 EGFR L858R/T790M/C797S cells were purchased from CoBioer Biosciences Co., Ltd.; • Cell Titer-Glo was purchased from Promega, with a catalog number of G7573; • RPMI 1640 was purchased from Gibco, with a catalog number of 22400089; • FBS was purchased from Gibco, with a catalog number of 10091148; • cell culture plates were purchased from Corning, with a catalog number of 3610.
(§3) The inhibitory activity of the compound on the proliferation of different EGFR C797S drug-resistant mutant cell lines was detected using the Cell Titer-Glo method. The different cell lines were cultured in RPMI 1640 complete culture medium containing 10% FBS under conditions of 37° C. and 5% CO2, the cells were collected by centrifugation when growing to a certain density, and adjusted to appropriate cell density after counting, the cells were spread on a white 96-well plate at 90 μL/well, and cultured in a 37° C., 5% CO2 incubator overnight, prepared compound solutions of different concentrations were added at 10 μL/well, corresponding solvent controls were set, and all wells were cultured in a 37° C., 5% CO2 incubator for 72 hours, 50 μL of CellTiter-Glo solution was added to each well, shook and mixed evenly, and incubated in the dark for 10 minutes, and a BioTek Synergy H1 microplate reader was used for reading.
(§4) The luminescence signal value was used to calculate the inhibition rate. Graphpad Prism software was used to fit the concentration and inhibition rate to a nonlinear regression curve, so as to obtain the IC50 value, as shown in the Table below for details.

[2] = target: Ba/F3 EGFR L858R/T790M/C797S cells (Homo sapiens, UniProt P00533, T790M/C797S/L858R, cells depend on it); test: Cell proliferation inhibition (Cell Titer-Glo), Ba/F3 EGFR L858R/T790M/C797S; format: cell-based, mouse; conditions: 72 hours, CellTiter-Glo, read-out: Ba/F3 EGFR L858R_T790M_C797S IC50
From the text: as §1, §2, §3, §4

[3] = target: Ba/F3 EGFR Del19/C797S cells (Homo sapiens, UniProt P00533, C797S, cells depend on it, form not given); test: Cell proliferation inhibition (Cell Titer-Glo), Ba/F3 EGFR Del19/C797S; format: cell-based, mouse; conditions: 72 hours, CellTiter-Glo, read-out: Ba/F3 EGFR Del19/C797S IC50
Outline: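 Ba/F3 lines carrying the EGFR mutants, grown in RPMI 1640 with 10% FBS, were seeded overnight then exposed to compound for 72 h at 37 °C, 5% CO2. Viability by CellTiter-Glo luminescence; IC50 from nonlinear regression of inhibition versus concentration.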

[4] = Rat pharmacokinetic evaluation test; format: in vivo; conditions: Sprague-Dawley (SD), po, SD rats, male, p.o. 5 mg/kg, plasma
Procedure: SD rats were used as test animals to study the pharmacokinetic behavior of the compounds of the present invention in the rat body (plasma) after oral administration at a dose of 5 mg/kg.
2.2 Experimental Animals: 3 SD Rats/Group, Male, from Shanghai Jiesijie Experimental Animal Co., Ltd., Animal Production License Number (SCXK (Shanghai) 2013-0006 No. 311620400001794).
• Oral administration drug preparation: 20% solutol HS15 in 0.5% MC (methylcellulose)
20 g of a Solutol HS15 solid and 0.5 g of a MC solid powder were weighed and dissolved in 80 mL of purified water, and the mixture was vortexed, mixed until uniform, and subjected to ultrasound treatment to obtain a clear solution of 20% solutol HS15 in 0.5% MC.
The example compound was weighed into a 20 mL glass bottle, the solution was added thereto and the mixture was subjected to ultrasound treatment for 10 minutes to obtain a clear solution with a concentration of 0.5 mg/mL.
3 male SD rats were administered p.o. respectively after the 3 male SD rats were fasted overnight; the p.o. dose was 5 mg/kg and the administration volume was 10 mL/kg.
Blood collection: Before and after administration to rats, 0.2 mL of blood was collected from the jugular vein at 0.25, 0.5, 1, 2, 4, 6, 8 and 24 h, and placed in an EDTA-K2 anticoagulation tube, which was centrifuged at 6000 rpm at 4° C. for 6 min to separate plasma which was stored at −80° C.; the rats were fed 4 h after administration.
1) 160 μL of acetonitrile was added to 40 μL of plasma sample for precipitation, mixed and centrifuged at 3500×g for 5 to 20 min.
2) the treated supernatant solution was taken and subjected to LC/MS/MS to analyze the concentrations of the test compounds. LC/MS/MS analysis instrument: AB Sciex API 4000 Qtrap.
• Liquid phase conditions: Shimadzu LC-20AD pump • Chromatographic column: Agilent ZORBAX XDB-C18 (50×2.1 mm, 3.5 μm) mobile phase: liquid A is 0.1% aqueous formic acid solution, liquid B is acetonitrile • Flow rate: 0.4 mL/min • Elution time: 0-4.0 min, the eluent is as follows:
The main pharmacokinetic parameters were calculated using WinNonlin 6.1.

Chain of Ba/F3 EGFR Del19/C797S cells (P00533 with tags, fused parts or gaps DEL746-750/C797S, form open): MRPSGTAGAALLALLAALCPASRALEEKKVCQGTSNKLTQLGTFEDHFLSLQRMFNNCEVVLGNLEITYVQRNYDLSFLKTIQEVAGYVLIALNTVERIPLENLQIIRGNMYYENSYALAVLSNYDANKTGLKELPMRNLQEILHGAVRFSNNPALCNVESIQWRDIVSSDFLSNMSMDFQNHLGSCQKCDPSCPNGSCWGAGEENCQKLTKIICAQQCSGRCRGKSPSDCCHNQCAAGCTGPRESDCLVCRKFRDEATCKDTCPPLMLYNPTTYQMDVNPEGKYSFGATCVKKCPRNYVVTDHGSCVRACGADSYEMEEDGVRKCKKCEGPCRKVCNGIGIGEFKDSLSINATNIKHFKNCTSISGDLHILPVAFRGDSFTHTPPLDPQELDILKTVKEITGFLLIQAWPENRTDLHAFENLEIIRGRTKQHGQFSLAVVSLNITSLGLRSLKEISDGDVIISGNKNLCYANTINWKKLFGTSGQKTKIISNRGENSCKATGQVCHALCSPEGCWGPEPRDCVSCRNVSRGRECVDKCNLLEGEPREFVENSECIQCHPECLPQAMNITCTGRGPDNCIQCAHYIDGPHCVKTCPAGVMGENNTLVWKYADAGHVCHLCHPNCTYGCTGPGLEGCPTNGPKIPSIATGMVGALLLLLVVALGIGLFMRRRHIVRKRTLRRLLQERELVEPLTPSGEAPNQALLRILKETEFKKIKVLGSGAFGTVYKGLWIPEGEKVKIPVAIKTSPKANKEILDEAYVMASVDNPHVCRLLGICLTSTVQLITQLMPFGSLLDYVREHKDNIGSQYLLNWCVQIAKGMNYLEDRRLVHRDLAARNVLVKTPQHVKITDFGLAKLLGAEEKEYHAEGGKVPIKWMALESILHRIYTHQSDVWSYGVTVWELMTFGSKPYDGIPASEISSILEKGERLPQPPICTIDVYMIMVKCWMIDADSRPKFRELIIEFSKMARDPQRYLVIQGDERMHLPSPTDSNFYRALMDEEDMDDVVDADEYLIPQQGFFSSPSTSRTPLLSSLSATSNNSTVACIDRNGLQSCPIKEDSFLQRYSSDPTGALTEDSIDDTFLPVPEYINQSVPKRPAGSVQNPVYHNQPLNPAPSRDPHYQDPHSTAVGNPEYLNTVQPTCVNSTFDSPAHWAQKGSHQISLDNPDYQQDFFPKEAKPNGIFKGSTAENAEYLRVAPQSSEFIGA
Chain of Ba/F3 EGFR L858R/T790M/C797S cells (P00533 whole entry T790M/C797S/L858R): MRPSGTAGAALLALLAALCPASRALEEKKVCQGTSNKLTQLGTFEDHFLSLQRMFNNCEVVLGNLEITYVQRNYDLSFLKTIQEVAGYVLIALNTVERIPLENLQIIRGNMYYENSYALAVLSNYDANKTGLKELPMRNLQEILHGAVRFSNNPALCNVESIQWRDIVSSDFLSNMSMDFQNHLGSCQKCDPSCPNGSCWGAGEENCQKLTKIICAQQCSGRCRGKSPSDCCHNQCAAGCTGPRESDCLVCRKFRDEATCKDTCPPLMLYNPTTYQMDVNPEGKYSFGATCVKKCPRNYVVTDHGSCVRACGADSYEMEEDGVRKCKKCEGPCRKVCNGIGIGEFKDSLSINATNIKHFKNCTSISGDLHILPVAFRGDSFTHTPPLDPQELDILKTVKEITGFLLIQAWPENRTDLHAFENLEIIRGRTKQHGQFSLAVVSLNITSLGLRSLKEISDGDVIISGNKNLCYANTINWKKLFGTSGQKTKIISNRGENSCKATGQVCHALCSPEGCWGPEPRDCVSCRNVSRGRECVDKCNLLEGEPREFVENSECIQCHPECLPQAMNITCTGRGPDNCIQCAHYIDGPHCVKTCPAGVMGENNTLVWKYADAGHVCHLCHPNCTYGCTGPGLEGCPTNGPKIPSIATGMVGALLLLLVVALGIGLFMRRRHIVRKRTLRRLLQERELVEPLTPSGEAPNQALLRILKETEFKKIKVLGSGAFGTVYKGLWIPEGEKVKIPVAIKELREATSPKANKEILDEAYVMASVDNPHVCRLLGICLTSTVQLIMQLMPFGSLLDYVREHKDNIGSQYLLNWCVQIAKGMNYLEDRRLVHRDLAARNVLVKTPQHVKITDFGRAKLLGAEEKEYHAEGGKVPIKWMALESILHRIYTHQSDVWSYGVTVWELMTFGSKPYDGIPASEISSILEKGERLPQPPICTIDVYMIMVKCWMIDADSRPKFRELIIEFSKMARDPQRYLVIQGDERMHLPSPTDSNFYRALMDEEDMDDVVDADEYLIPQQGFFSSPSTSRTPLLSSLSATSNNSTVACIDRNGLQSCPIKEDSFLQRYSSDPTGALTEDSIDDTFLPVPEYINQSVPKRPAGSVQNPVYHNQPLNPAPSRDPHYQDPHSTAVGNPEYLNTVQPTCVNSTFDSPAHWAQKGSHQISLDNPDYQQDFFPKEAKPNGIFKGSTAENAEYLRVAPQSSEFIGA
Chain of Ba/F3 EGFR Del19/T790M/C797S cells (P00533 with tags, fused parts or gaps DEL746-750/T790M/C797S, form open): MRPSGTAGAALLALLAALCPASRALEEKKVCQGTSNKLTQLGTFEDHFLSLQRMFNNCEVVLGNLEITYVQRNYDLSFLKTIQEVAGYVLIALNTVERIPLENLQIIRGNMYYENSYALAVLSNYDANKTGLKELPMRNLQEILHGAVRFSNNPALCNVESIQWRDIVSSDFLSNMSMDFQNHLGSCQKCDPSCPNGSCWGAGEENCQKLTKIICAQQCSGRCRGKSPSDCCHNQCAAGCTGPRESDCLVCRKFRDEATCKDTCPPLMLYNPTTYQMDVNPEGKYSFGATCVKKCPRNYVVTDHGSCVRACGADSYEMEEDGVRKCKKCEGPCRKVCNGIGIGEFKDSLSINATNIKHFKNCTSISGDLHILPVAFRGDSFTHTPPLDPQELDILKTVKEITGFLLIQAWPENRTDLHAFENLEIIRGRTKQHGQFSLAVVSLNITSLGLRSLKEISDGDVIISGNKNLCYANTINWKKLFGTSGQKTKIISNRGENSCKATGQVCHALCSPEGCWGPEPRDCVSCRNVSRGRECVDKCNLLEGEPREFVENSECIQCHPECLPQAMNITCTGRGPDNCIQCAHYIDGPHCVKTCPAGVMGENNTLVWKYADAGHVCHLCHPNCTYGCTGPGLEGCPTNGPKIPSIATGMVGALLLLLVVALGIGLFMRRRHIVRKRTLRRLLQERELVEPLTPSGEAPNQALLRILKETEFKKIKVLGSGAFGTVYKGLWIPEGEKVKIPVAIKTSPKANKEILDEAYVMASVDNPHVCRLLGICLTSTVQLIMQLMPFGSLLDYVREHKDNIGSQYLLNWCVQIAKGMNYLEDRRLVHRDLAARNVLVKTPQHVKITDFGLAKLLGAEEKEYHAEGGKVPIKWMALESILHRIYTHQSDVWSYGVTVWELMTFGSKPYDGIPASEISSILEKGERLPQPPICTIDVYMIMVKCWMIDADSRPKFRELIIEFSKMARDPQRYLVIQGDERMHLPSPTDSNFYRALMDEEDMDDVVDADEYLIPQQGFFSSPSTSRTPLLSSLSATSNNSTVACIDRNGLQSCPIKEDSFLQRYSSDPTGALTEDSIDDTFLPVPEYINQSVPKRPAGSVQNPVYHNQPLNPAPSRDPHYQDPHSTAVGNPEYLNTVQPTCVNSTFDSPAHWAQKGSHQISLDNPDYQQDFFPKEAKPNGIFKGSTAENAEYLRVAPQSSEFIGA

| GI50 [1] [nM] | GI50 [2] [nM] | GI50 [3] [nM] | AUC(0-t) [4] [ng·h/mL] | Cmax [4] [ng/mL] | half-life [4] [h] | SMILES |
| --- | --- | --- | --- | --- | --- | --- |
| 2.9 | 8.2 | 5.1 | 1260 | 97 | 3.5 | CC(C)c1ccc(N2C[C@H](N(C)S(C)(=O)=O)[C@H]2C)c2cnc(Nc3ccnc(-c4cn(C)nc4Cl)n3)cc12 [Example 122, N-((2R,3S)-1-(3-((2-(3-chloro-1-methyl-1H-pyrazol-4-yl)pyrimidin-4-yl)amino)-5-isopropylisoquinolin-8-yl)-2-methylazetidin-3-yl)-N-methyl methanesulfonamide] |
| 5.6 | 15 | 6.4 | 1570 | 180 | 3 | CC(C)c1cnc(N2C[C@H](CS(C)(=O)=O)[C@H]2C)c2cnc(Nc3ccnc(-c4cn(C)nc4Cl)n3)cc12 [Example 132, N-(2-(3-chloro-1-methyl-1H-pyrazol-4-yl)pyrimidin-4-yl)-5-isopropyl-8-((2R,3S)-2-methyl-3-((methanesulfonyl)methyl)azetidin-1-yl)-2,7-diazanaphthalen-3-amine] |
| 3.7 | 11 | 5.1 | 1260 | 239 | 4.1 | CC(C)c1ccc(N2C[C@H](CS(C)(=O)=O)[C@H]2C)c2cnc(Nc3ccnc(-c4cn(C)nc4Cl)n3)cc12 [Example 5, N-(2-(3-chloro-1-methyl-1H-pyrazol-4-yl)pyrimidin-4-yl)-5-isopropyl-8-((2R,3S)-2-methyl-3-((methanesulfonyl)methyl)azabut-1-yl)isoquinolin-3-amine] |
| 2.1 | 7.5 | 3 | 3140 | 240 | 3.3 | Cc1nn(C)cc1-c1nccc(Nc2cc3c(C(C)C)ccc(N4C[C@H](N(C)S(C)(=O)=O)[C@H]4C)c3cn2)n1 [Example 126, N-((2R,3S)-1-(3-((2-(1,3-dimethyl-1H-pyrazol-4-yl)pyrimidin-4-yl)amino)-5-isopropylisoquinolin-8-yl)-2-methylazetidin-3-yl)-N-methyl methanesulfonamide] |
